Our source for the IC50 and MIC values is patent US20240150298A1, “ANTIBACTERIAL COMPOUNDS” (Blacksmith Medicines, Inc., priority 2021, published 2024).

Broadly, the IC50 is the concentration at which inhibition is half-maximal. Higher therefore signals lower potency. As usually defined, the MIC is the lowest concentration that inhibits growth of the organism.

One test deals with K. pneumoniae LpxC (Klebsiella pneumoniae subsp. pneumoniae, UniProt A6T4N9). Nature of the test: LpxC Binding Assay (Rapid Fire MS assay). It counts as biochemical.
K. pneumoniae LpxC, sequence (A6T4N9 whole entry): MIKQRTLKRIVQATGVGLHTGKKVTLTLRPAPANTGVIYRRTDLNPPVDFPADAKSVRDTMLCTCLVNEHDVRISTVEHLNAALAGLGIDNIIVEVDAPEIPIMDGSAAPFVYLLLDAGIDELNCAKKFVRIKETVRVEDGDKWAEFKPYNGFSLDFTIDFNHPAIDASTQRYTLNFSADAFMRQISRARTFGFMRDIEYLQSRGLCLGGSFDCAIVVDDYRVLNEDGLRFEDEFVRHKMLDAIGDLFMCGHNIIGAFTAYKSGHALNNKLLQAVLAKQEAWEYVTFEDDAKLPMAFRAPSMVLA
In a further test the target is E. coli LpxC (Escherichia coli, UniProt P0A725). As to the kind of experiment: LpxC Binding Assay (Rapid Fire MS assay). It counts as biochemical. How it is done: (§1) IC50 values against E. coli and P. aeruginosa LpxC are determined using a Rapid Fire MS assay as previously described J. Med. Chem. 2012, 55, 1662-1670.
E. coli LpxC, sequence (P0A725 whole entry): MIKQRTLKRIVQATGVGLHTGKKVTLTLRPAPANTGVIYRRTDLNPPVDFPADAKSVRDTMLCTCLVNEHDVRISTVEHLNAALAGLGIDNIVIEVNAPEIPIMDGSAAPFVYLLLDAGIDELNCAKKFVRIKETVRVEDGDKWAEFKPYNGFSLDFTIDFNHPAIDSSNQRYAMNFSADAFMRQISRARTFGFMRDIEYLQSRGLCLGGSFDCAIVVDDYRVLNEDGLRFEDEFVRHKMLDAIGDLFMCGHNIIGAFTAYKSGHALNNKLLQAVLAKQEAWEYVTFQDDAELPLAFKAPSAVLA
For the next test, the target named is T1, P. aeruginosa LpxC (Pseudomonas aeruginosa, UniProt P47205).
T1 sequence (P47205 1-303): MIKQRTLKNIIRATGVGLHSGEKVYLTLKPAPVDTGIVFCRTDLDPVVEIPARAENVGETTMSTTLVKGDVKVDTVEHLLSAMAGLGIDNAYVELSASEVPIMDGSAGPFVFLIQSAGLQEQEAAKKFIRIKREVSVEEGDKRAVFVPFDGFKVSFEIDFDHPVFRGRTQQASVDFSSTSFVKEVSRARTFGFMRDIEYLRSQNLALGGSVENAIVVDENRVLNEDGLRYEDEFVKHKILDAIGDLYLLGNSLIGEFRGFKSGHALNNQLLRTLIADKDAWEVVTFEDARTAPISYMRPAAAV
Nature of the test: LpxC Binding Assay (Rapid Fire MS assay). It counts as biochemical. Here is the method: as §1

The next test has as its system P. aeruginosa ATCC27835. As to the kind of experiment: Bacterial susceptibility testing, MIC by broth microdilution (CLSI). The class given is cell-based. Conditions: Pseudomonas aeruginosa, ATCC27835, broth microdilution, 35° C., 18-24 h; read-out: MIC P. aeruginosa ATCC27835. The essentials:
(§2)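 Broth microdilution per CLSI in cation-adjusted Mueller-Hinton broth, inoculum 3×10^5–7×10^5 CFU/mL, 2-fold serial drug dilutions in DMSO. Incubated in ambient air at 35° C for 18-24 h. MIC taken as lowest concentration preventing visible growth (OD600 nm<0.05).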

The next test relates to E. coli ATCC25922. The description is as above. It counts as cell-based. Conditions: Escherichia coli, ATCC25922, broth microdilution, 35° C., 18-24 h; read-out: MIC E. coli ATCC25922. The procedure, abridged:
as §2
Background: Dilution methods test growth across graded concentrations, often in twofold steps.

For a further test, the system named is P. aeruginosa 209 PAO1. The test is described as above. The class given is cell-based. The conditions noted are these: Pseudomonas aeruginosa, PAO1, broth microdilution, 35° C., 18-24 h; read-out: MIC P. aeruginosa 209 PAO1. The essentials:
as §2

The next test has as its system K. pneumoniae ATCC13883. The description is as above. Conditions: Klebsiella pneumoniae, ATCC13883, broth microdilution, 35° C., 18-24 h; read-out: MIC K. pneumoniae ATCC13883. The class given is cell-based. The essentials: as §2

In brackets after ≈: the same amount, converted by molar mass.

For `C[C@H](O)c1nccn1[C@@H](/C=C/c1ccc(-c2ccc(OC[C@@H](O)CO)cc2F)cc1)CO` [Compound 32, (S)-3-((2-fluoro-4′-((S,E)-4-hydroxy-3-(2-((S)-1-hydroxyethyl)-1H-imidazol-1-yl)but-1-en-1-yl)-[1,1′-biphenyl]-4-yl)oxy)propane-1,2-diol], the results for the IC50 at K. pneumoniae LpxC, on E. coli LpxC and on P. aeruginosa LpxC were 1.8 nM, 1 nM and 13.4 nM, respectively. Further, the MIC with P. aeruginosa ATCC27835 was 4 µg/mL (≈ 9.04 µM); in the test on E. coli ATCC25922, 2 µg/mL (≈ 4.52 µM); in the test on P. aeruginosa 209 PAO1, 4 µg/mL (≈ 9.04 µM); with K. pneumoniae ATCC13883, 8 µg/mL (≈ 18.1 µM).

Consider `C[C@H](O)c1nccn1[C@@H](/C=C/c1ccc(-c2ccc(OC3CCN(CCO)CC3)cc2)cc1)CO` [Compound 17, (S,E)-2-(2-((S)-1-hydroxyethyl)-1H-imidazol-1-yl)-4-(4′-((1-(2-hydroxyethyl)piperidin-4-yl)oxy)-[1,1′-biphenyl]-4-yl)but-3-en-1-ol], for which the values for the IC50 at K. pneumoniae LpxC, at E. coli LpxC and at P. aeruginosa LpxC were 6.3 nM, 4.2 nM and 66.4 nM, respectively. The MIC is 4 µg/mL (≈ 8.38 µM) in the test on P. aeruginosa ATCC27835, 4 µg/mL (≈ 8.38 µM) in the test with E. coli ATCC25922, 4 µg/mL (≈ 8.38 µM) in the test with P. aeruginosa 209 PAO1 and 16 µg/mL (≈ 33.5 µM) in the test on K. pneumoniae ATCC13883.

For `C[C@H](O)c1nccn1[C@@H](/C=C/c1ccc(-c2ccc(OC[C@H](O)CN)cc2)cc1)CO` [Compound 29, (S,E)-4-(4′-((R)-3-amino-2-hydroxypropoxy)-[1,1′-biphenyl]-4-yl)-2-(2-((S)-1-hydroxyethyl)-1H-imidazol-1-yl)but-3-en-1-ol], the values for the half-maximal inhibitory concentration (IC50) on K. pneumoniae LpxC, on E. coli LpxC and at P. aeruginosa LpxC were 9.1 nM, 5.9 nM and 120 nM, respectively. Besides, the MIC in the test with P. aeruginosa ATCC27835 was determined as 4 µg/mL (≈ 9.44 µM); with E. coli ATCC25922, 32 µg/mL (≈ 75.6 µM); in the test on P. aeruginosa 209 PAO1, 8 µg/mL (≈ 18.9 µM); in the test with K. pneumoniae ATCC13883, 64 µg/mL (≈ 151 µM).

Turning to `C[C@H](O)c1nccn1[C@@H](/C=C(\F)c1ccc(-c2ccc(OCC(N)CO)cc2)cc1)CO` (mixture of isomers) [Compound 11], the IC50 at K. pneumoniae LpxC was 4 nM; at E. coli LpxC, 2.7 nM; on P. aeruginosa LpxC, 31.3 nM. Further, the MIC was found to be 2 µg/mL (≈ 4.53 µM) in the test with P. aeruginosa ATCC27835, 4 µg/mL (≈ 9.06 µM) in the test with E. coli ATCC25922, 1 µg/mL (≈ 2.26 µM) in the test with P. aeruginosa 209 PAO1 and 16 µg/mL (≈ 36.2 µM) in the test with K. pneumoniae ATCC13883.

On to `COC(CN)COc1ccc(-c2ccc(/C=C/[C@@H](CO)n3ccnc3[C@H](C)O)cc2)cc1` (mixture of isomers) [Compound 27, (2S,E)-4-(4′-(3-amino-2-methoxypropoxy)-[1,1′-biphenyl]-4-yl)-2-(2-((S)-1-hydroxyethyl)-1H-imidazol-1-yl)but-3-en-1-ol], for which the IC50 at K. pneumoniae LpxC was 6.2 nM; on E. coli LpxC, 2.9 nM; at P. aeruginosa LpxC, 41.2 nM. Also, the MIC was determined as 4 µg/mL (≈ 9.14 µM) in the test with P. aeruginosa ATCC27835, 8 µg/mL (≈ 18.3 µM) with E. coli ATCC25922, 4 µg/mL (≈ 9.14 µM) with P. aeruginosa 209 PAO1 and 32 µg/mL (≈ 73.1 µM) with K. pneumoniae ATCC13883.

Regarding `C[C@H](O)c1nccn1[C@@H](/C=C/c1ccc(-c2ccc(OC[C@@H](O)CO)cc2)cc1)CO` [Compound 24, (S)-3-((4′-((S,E)-4-hydroxy-3-(2-((S)-1-hydroxyethyl)-1H-imidazol-1-yl)but-1-en-1-yl)-[1,1′-biphenyl]-4-yl)oxy)propane-1,2-diol], the IC50 at K. pneumoniae LpxC is 1.1 nM; at E. coli LpxC it was 0.5 nM; at P. aeruginosa LpxC, 17.5 nM. For the same compound, the MIC with P. aeruginosa ATCC27835 turned out to be 2 µg/mL (≈ 4.71 µM); in the test with E. coli ATCC25922 it was 2 µg/mL (≈ 4.71 µM); in the test on P. aeruginosa 209 PAO1, 2 µg/mL (≈ 4.71 µM); with K. pneumoniae ATCC13883 it was 8 µg/mL (≈ 18.8 µM).
